The target of this experiment is T1, Recombinant yeast Hsp90 (Saccharomyces cerevisiae, UniProt P02829).
T1 construct: made in house
Put plainly: Inhibition of Hsp90 ATPase activity, production of inorganic phosphate. Format: biochemical. Particulars: incubated with ATP. As to the method: The present invention also evaluated the biological activity of some of the RAD amides prepared in accordance with the present invention. Recombinant yeast Hsp90 was overexpressed and purified according to the procedure of Buchner. Richter, et al., Coordinated ATP Hydrolysis by the Hsp90 Dimer. […] The yeast was a kind gift from Boris Kornikaeve at the University of Kansas Biomedical Research Service Laboratory.
The pure protein was incubated with ATP and one of three RAD amides (the quinone, the 1,4-hydroxy, or the 1,4-methoxy), and the production of inorganic phosphate was determined.

pIC50: −log10 of the molar value.

T1 sequence (P02829 whole entry): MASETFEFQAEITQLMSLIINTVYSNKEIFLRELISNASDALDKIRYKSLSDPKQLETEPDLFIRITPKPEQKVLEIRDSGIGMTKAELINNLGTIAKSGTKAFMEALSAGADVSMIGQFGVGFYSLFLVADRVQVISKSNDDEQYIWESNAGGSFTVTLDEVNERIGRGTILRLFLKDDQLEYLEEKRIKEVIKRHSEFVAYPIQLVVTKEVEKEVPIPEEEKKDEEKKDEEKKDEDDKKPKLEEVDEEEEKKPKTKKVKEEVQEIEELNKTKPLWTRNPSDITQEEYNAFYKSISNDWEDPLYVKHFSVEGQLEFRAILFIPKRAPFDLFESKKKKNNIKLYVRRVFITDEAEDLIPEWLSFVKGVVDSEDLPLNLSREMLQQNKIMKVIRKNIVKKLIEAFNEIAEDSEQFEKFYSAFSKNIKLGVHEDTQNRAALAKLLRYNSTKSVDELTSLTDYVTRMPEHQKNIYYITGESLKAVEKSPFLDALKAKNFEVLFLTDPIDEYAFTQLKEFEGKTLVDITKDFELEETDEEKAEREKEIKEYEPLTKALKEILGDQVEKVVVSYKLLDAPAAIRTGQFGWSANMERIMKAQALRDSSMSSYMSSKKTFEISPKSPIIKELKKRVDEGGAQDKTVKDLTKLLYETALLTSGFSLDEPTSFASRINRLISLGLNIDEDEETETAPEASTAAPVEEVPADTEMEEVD

Consider `COC(=O)c1c(O)cc(O)c(Cl)c1CCC(=O)NC1=CC(=O)C(OC)=CC1=O` [Quinone], for which the pIC50 by setting is: (IC50 (μm), table) 5.23; (IC50 / inhibitory activity) 5.74.

These data come from patent US8188306B2, “Heat shock protein 90 inhibitors” (University of Kansas, priority 2004, dated 2012).
